target: T1, DDR1 (Homo sapiens, UniProt Q08345); experiment: not given; set-up: method as in PMID 23275061; conditions: cited from earlier work
T1 construct: purchased Invitrogen
T1 sequence (Q08345 19-913): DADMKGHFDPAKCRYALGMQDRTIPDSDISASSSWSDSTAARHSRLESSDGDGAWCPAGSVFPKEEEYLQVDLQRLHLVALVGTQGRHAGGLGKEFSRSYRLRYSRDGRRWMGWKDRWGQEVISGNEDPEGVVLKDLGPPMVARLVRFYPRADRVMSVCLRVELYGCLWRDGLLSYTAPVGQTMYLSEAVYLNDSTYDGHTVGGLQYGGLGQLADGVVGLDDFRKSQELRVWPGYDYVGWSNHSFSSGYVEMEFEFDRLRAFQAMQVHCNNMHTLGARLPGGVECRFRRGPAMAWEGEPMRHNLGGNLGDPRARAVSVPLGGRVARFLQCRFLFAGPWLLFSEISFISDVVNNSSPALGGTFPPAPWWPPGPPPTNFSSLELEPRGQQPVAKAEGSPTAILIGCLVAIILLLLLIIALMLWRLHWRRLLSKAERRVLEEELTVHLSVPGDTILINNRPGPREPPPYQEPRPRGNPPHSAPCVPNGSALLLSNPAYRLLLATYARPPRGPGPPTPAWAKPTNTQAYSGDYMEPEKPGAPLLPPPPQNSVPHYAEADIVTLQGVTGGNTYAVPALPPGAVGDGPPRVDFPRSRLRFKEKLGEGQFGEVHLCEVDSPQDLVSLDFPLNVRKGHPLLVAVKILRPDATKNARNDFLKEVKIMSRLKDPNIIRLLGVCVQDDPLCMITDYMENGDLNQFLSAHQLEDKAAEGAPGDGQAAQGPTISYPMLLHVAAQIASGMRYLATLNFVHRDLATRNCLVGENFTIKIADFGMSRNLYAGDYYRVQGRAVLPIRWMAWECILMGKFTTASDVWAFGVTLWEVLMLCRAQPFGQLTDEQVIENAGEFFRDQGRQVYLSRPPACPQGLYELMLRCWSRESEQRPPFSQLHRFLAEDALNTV

| Structure (SMILES) | EC50 [nM] |
| --- | --- |
| Cc1ccc(C(=O)Nc2ccc(Oc3cc4cnn(C)c4cc3-c3cn[nH]c3)c(F)c2)c(=O)n1-c1ccc(F)cc1 [LY2801653] | < 1 |

test system: ABL; experiment: not given; set-up: method as in PMID 23899692; conditions: quoted for selectivity relative to DDR1; cited from earlier work

| Structure (SMILES) | IC50 [nM] |
| --- | --- |
| CCN1CCN(Cc2ccc(C(=O)Nc3ccc(C)c(Oc4ccc5c(c4)CC(=O)N5)c3)cc2C(F)(F)F)CC1 [DDR1-IN-1] | 1800 |

target: T1, DDR1; experiment: not given; set-up: method as in PMID 23275061; conditions: cited from earlier work; remark: another data set of the same source

| Structure (SMILES) | IC50 [nM] |
| --- | --- |
| Cc1ccc(C(=O)Nc2ccc(Oc3cc4cnn(C)c4cc3-c3cn[nH]c3)c(F)c2)c(=O)n1-c1ccc(F)cc1 [LY2801653] | < 1 |

target: T1, DDR1; experiment: LanthaScreen kinase activity assay (Invitrogen), DDR1; format: biochemical; conditions: LanthaScreen kinase activity assay; read-out: Enzymatic IC50 values DDR1
Experimental: (§1) IC50 values were determined by Invitrogen using a LanthaScreen kinase activity assay.
(§2) Figure S2. Inhibition of DDR1 and DDR2. (a) IC50 values for DDR1 inhibition determined by using a LanthaScreen kinase activity assay (Invitrogen). (b) IC50 values for DDR2 inhibition determined similarly.

| IC50 [nM] | Structure (SMILES) |
| --- | --- |
| 262 | CCN1CCN(Cc2ccc(NC(=O)Nc3ccc(C)c(Oc4ccc5c(c4)CC(=O)N5)c3)cc2C(F)(F)F)CC1 [Compound 1] |
| 115 | Cc1ccc(NC(=O)c2ccc(OC3CCN(C)CC3)c(C(F)(F)F)c2)cc1Oc1ccc2c(c1)CC(=O)N2 [Compound 2] |
| > 10000 | CCN1CCN(Cc2ccc(C(=O)Nc3ccc(C)c(Oc4ccc5c(c4)CC(=O)N5)c3)c(F)c2)CC1 [Compound 6] |

The next lines start with the compound.

| Structure (SMILES) | IC50 [nM] |
| --- | --- |
| Cc1ccc(NC(=O)c2cccc(C(C)(C)C#N)c2)cc1Oc1ccc2c(c1)CC(=O)N2 [Compound 5] | 174 |
| CCN1CCN(c2cc(C(=O)Nc3ccc(C)c(Oc4ccc5c(c4)CC(=O)N5)c3)cc(C(F)(F)F)c2)CC1 [Compound 4] | 150 |
| Cc1ccc(NC(=O)c2cc(N3CCN(CCO)CC3)cc(C(F)(F)F)c2)cc1Oc1ccc2c(c1)CC(=O)N2 [Compound 3] | 182 |
| CCN1CCN(Cc2ccc(F)c(C(=O)Nc3ccc(C)c(Oc4ccc5c(c4)CC(=O)N5)c3)c2)CC1 [Compound 7] | 8940 |

same assay, conditions: removal of the trifluoromethyl group

| activity of analogs against DDR1 kinase activity (in words) | Structure (SMILES) |
| --- | --- |
| inactive | CCN1CCN(Cc2ccc(F)c(C(=O)Nc3ccc(C)c(Oc4ccc5c(c4)CC(=O)N5)c3)c2)CC1 [Compound 7] |
| inactive | CCN1CCN(Cc2ccc(C(=O)Nc3ccc(C)c(Oc4ccc5c(c4)CC(=O)N5)c3)c(F)c2)CC1 [Compound 6] |

target: T2, DDR2 (Homo sapiens, UniProt Q16832); experiment: LanthaScreen kinase activity assay (Invitrogen), DDR2; format: biochemical; conditions: read-out: Enzymatic IC50 values DDR2
T2 construct: purchased Invitrogen
T2 sequence (Q16832 22-855): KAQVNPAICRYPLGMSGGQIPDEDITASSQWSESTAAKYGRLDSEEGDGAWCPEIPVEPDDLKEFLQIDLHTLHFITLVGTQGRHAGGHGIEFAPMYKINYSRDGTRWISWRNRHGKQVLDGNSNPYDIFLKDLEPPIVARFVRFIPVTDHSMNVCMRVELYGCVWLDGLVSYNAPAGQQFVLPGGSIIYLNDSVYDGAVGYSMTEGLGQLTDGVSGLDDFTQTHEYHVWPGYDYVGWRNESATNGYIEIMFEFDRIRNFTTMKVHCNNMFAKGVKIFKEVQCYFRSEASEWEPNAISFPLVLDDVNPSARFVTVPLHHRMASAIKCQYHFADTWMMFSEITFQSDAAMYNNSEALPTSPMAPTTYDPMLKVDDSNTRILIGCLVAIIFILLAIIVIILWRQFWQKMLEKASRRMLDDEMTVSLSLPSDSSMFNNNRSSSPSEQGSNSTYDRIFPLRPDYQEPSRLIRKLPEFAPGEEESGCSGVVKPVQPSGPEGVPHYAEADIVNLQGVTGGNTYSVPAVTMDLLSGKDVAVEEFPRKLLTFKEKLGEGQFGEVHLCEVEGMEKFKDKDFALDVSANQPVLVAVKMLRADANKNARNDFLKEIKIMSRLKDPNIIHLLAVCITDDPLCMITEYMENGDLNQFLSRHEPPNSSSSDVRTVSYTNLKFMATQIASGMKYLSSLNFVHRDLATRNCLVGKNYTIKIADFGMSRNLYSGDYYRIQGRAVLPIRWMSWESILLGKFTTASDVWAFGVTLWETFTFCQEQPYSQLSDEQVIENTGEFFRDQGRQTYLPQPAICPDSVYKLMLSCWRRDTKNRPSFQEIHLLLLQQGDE
Experimental: as §1, §2

| IC50 [nM] | Structure (SMILES) |
| --- | --- |
| 785 | CCN1CCN(Cc2ccc(NC(=O)Nc3ccc(C)c(Oc4ccc5c(c4)CC(=O)N5)c3)cc2C(F)(F)F)CC1 [Compound 1] |
| 338 | Cc1ccc(NC(=O)c2ccc(OC3CCN(C)CC3)c(C(F)(F)F)c2)cc1Oc1ccc2c(c1)CC(=O)N2 [Compound 2] |
| > 10000 | CCN1CCN(Cc2ccc(C(=O)Nc3ccc(C)c(Oc4ccc5c(c4)CC(=O)N5)c3)c(F)c2)CC1 [Compound 6] |

Further lines, the compound ahead of its results:

| Structure (SMILES) | IC50 [nM] |
| --- | --- |
| Cc1ccc(NC(=O)c2cccc(C(C)(C)C#N)c2)cc1Oc1ccc2c(c1)CC(=O)N2 [Compound 5] | 1020 |
| CCN1CCN(c2cc(C(=O)Nc3ccc(C)c(Oc4ccc5c(c4)CC(=O)N5)c3)cc(C(F)(F)F)c2)CC1 [Compound 4] | 385 |
| Cc1ccc(NC(=O)c2cc(N3CCN(CCO)CC3)cc(C(F)(F)F)c2)cc1Oc1ccc2c(c1)CC(=O)N2 [Compound 3] | 546 |
| CCN1CCN(Cc2ccc(C(=O)Nc3ccc(C)c(Oc4ccc5c(c4)CC(=O)N5)c3)cc2C(F)(F)F)CC1 [DDR1-IN-1] | 413 |
| CCN1CCN(Cc2ccc(F)c(C(=O)Nc3ccc(C)c(Oc4ccc5c(c4)CC(=O)N5)c3)c2)CC1 [Compound 7] | > 10000 |

Source: paper PMC4058747, “Structural Mechanisms Determining Inhibition of the Collagen Receptor DDR1 by Selective and Multi-Targeted Type II Kinase Inhibitors” (Journal of Molecular Biology, 2014)
